pIC50: −log10 of the molar value. Active and inactive are the calls of the source. No cut-off for these calls is given here.
Experiments:
[1] = tested on: A549; experiment: Antiproliferative activity against human A549 cells assessed as cell viability measured after 48 hrs incubation by MTT assay; format: functional, cell-based; conditions: A549, 48 h
[2] = tested on: HepG2; experiment: Antiproliferative activity against human HepG2 cells assessed as cell viability measured after 48 hrs incubation by MTT assay; format: functional, cell-based; conditions: HepG2, 48 h
[3] = tested on: MCF7; experiment: Antiproliferative activity against human MCF7 cells assessed as cell viability measured after 48 hrs incubation by MTT assay; format: functional, cell-based; conditions: MCF7, 48 h
[4] = Antiproliferative activity against human MCF-10A cells assessed as cell viability measured after 48 hrs incubation by MTT assay; format: toxicity, cell-based
[5] = Selectivity index, ratio of IC50 for human MCF-10A cells to IC50 for human MCF7 cells; format: toxicity; conditions: MCF-10A cells and MCF7 cells, read-out: Selectivity Index
[6] = tested on: MCF7; experiment: Induction of apoptosis in human MCF7 cells assessed as viable cells at 6 uM measured after 48 hrs incubation by Annexin V-FITC/PI double staining assay (reference value: 92.8%); format: functional; conditions: read-out: Activity
[7] = tested on: MCF7; experiment: Induction of apoptosis in human MCF7 cells assessed as early apoptotic cells at 6 uM measured after 48 hrs incubation by Annexin V-FITC/PI double staining assay (reference value: 5.73%); format: functional
[8] = tested on: MCF7; experiment: Induction of apoptosis in human MCF7 cells assessed as late apoptotic cells at 6 uM measured after 48 hrs incubation by Annexin V-FITC/PI double staining assay (reference value: 0.68%); format: functional
[9] = tested on: MCF7; experiment: Induction of apoptosis in human MCF7 cells assessed as necrotic cells at 6 uM measured after 48 hrs incubation by Annexin V-FITC/PI double staining assay (reference value: 0.77%); format: functional
[10] = tested on: MCF7; experiment: Induction of apoptosis in human MCF7 cells assessed as decrease in mitochondrial membrane potential by measuring increase in JC-1 monomer (green fluorescence) at 6 uM incubated for 48 hrs by JC-1 staining based flow cytometry analysis (reference value: 2.96%); format: functional; set-up: scale not given: the % may be the effect or the level left
[11] = tested on: MCF7; experiment: Induction of cell cycle arrest in human MCF7 cells assessed as accumulation of cells at G0/G1 phase at 6 uM measured after 48 hrs by PI staining based flow cytometry analysis (reference value: 58.42%); format: functional
[12] = tested on: MCF7; experiment: Induction of cell cycle arrest in human MCF7 cells assessed as accumulation of cells at S phase at 6 uM measured after 48 hrs by PI staining based flow cytometry analysis (reference value: 24.67%); format: functional
[13] = tested on: MCF7; experiment: Induction of cell cycle arrest in human MCF7 cells assessed as accumulation of cells at G2/M phase at 6 uM measured after 48 hrs by PI staining based flow cytometry analysis (reference value: 16.91%); format: functional
[14] = tested on: 4T1; experiment: In vivo antitumor activity against mouse 4T1 cells transfected in BALB/c mouse assessed as tumor growth inhibition at 30 mg/kg, ip daily for 14 consecutive days relative to control; format: functional; conditions: 4T1, 336 h, time 14 day, read-out: TGI
[15] = tested on: 4T1; experiment: In vivo antitumor activity against mouse 4T1 cells transfected in BALB/c mouse assessed as tumor growth inhibition at 15 mg/kg, ip daily for 14 consecutive days relative to control; format: functional; conditions: time 14.0 day
[16] = Toxicity in healthy BALB/c mouse assessed as pathological changes in heart at 20 mg/kg, ip daily for 14 consecutive days by HE staining based assay; format: organism-based; conditions: in vivo, 336 h, time 14 day

| Structure (SMILES) | pIC50 [1] | pIC50 [2] | pIC50 [3] | IC50 at 48 h [4] [µM] | selectivity ratio [5] | viability at 6 µM [6] [%] | Activity [7] [%] | Activity [8] [%] | Activity [9] [%] | Activity [10] [%] | Activity [11] [%] | Activity [12] [%] | Activity [13] [%] | inhibition in vivo at 30 mg/kg [14] [%] | TGI [15] | Activity [16] |
| --- | --- | --- | --- | --- | --- | --- | --- | --- | --- | --- | --- | --- | --- | --- | --- | --- |
| COc1ccc(/C=C2\SC(=O)N(CC(=O)NCCNC(=O)O[C@H]3CC[C@]4(C)[C@H]5CC[C@]6(C)[C@@H]([C@H](C)/C=C/[C@H](C)C(C)C)CC[C@H]6[C@@]56C=C[C@]4(C3)OO6)C2=O)cc1OC | 5.07 | 5.21 | 5.27 | 20.8 | 3.89 |  |  |  |  |  |  |  |  |  |  |  |
| COc1ccc(/C=C2\SC(=O)N(CC(=O)NCCNC(=O)O[C@H]3CC[C@]4(C)[C@H]5CC[C@]6(C)[C@@H]([C@H](C)/C=C/[C@H](C)C(C)C)CC[C@H]6[C@@]56C=C[C@]4(C3)OO6)C2=O)c(OC)c1OC | 5.29 | 5.24 | 5.37 | 30.1 | 7.07 |  |  |  |  |  |  |  |  |  |  |  |
| CC(C)[C@@H](C)/C=C/[C@@H](C)[C@H]1CC[C@@H]2[C@]1(C)CC[C@H]1[C@]23C=C[C@]2(C[C@@H](O)CC[C@]12C)OO3 [ERGOSTEROL PEROXIDE] | 4.83 | 4.74 | 4.71 |  |  | 90.1 | 8.97 | 0.45 | 0.47 | 11.3 | 61.61 | 18.74 | 19.66 |  |  |  |
| O=c1[nH]cc(F)c(=O)[nH]1 [FLUOROURACIL] | 5.37 | 4.97 |  |  |  |  |  |  |  |  |  |  |  | 86.1 | Active | Non-toxic |
| CC(C)[C@@H](C)/C=C/[C@@H](C)[C@H]1CC[C@@H]2[C@]1(C)CC[C@H]1[C@]23C=C[C@]2(C[C@@H](OC(=O)NCCNC(=O)CN4C(=O)S/C(=C\C5CC5)C4=O)CC[C@]12C)OO3 | 5.48 | 5.22 | 5.26 | 35.9 | 6.55 |  |  |  |  |  |  |  |  |  |  |  |
| Cc1ccc(/C=C2\SC(=O)N(CC(=O)NCCNC(=O)O[C@H]3CC[C@]4(C)[C@H]5CC[C@]6(C)[C@@H]([C@H](C)/C=C/[C@H](C)C(C)C)CC[C@H]6[C@@]56C=C[C@]4(C3)OO6)C2=O)cc1 | 5.14 | 5.17 | 5.33 | 24.1 | 5.11 |  |  |  |  |  |  |  |  |  |  |  |
| CC(C)[C@@H](C)/C=C/[C@@H](C)[C@H]1CC[C@@H]2[C@]1(C)CC[C@H]1[C@]23C=C[C@]2(C[C@@H](OC(=O)NCCNC(=O)CN4C(=O)S/C(=C\c5ccc(Cl)cc5)C4=O)CC[C@]12C)OO3 | 5.05 | 5.05 | 5.23 | 28.9 | 4.9 |  |  |  |  |  |  |  |  |  |  |  |

Source: ChEMBL document CHEMBL6078657, “Thiazolidinedione-based structure modification of ergosterol peroxide provides thiazolidinedione-conjugated derivatives as potent agents against breast cancer cells through a PI3K/AKT/mTOR pathway” (Bioorg Med Chem, 2025)
